The target in one series is T1, GABAA α1β2γ2 (Homo sapiens, UniProt P14867+P18507+P47870).
T1 construct: expressed in transfected cells; host or cells: HEK293
As to the kind of experiment: 35S-TBPS binding assay, HEK293 membranes with GABAA α1β2γ2 construct. The conditions noted are these: 35S-TBPS 5 nM, GABA 1 μM, 2 hours at room temperature, read-out: α1β2γ2 (35S-TBPS binding, pIC50) (converted). The protocol: (§1) The binding assay is based on the assay reported by K. Gee et al., Eur. J. Pharmacol. 1987, 136, 419-423.
(§2) Homogenate preparation: Membrane preparations of HEK293 cells containing either GABAA α1β2γ2 or GABAA α2β3γ2 constructs were performed according to a modified procedure previously described by Gee et al. (supra). Whole HEK 293 cells in D-PBS (calcium/magnesium free) buffer adjusted to pH 7.4 were centrifuged at 7,280×g for 20 m. After discarding the supernatant, the pellet was resuspended in the buffer and centrifuged at 1,820×g for 10 m. Afterwards, the supernatant was discarded and the pellet resuspended in ice-cold preparation buffer (50 mM Tris HCl pH 7.4, 4° C. and 150 mM KCl), homogenized for 30 sec using a Brinkmann Polytron PT3000 (setting 6) and centrifuged at 48,000×g for 30 m at 4° C. The centrifugation and homogenization procedure was repeated two more times for a total of 3 times before resuspending the membranes at a final protein concentration of 0.5 mg/mL. Aliquots (30 mL) of the final membrane preparation were then centrifuged at 48,000×g for 30 m, and the resulting pellets were stored at −80° C. until required.
(§3) 35S-TBPS binding assay. Membrane pellets containing either GABAA α1β2γ2 or GABAA α2β3γ2 constructs were thawed on ice, resuspended in 10 mL of 50 mM Tris HCl pH7.4, 4° C. and 150 mM KCl and centrifuged at 48,000×g, 30 m at 4° C. After discarding the supernatant, the pellet was resuspended in 30 mL incubation buffer (50 mM Tris HCl pH 7.4, 25° C. and 150 mM KCl) at approximately 0.5 mg/mL protein concentration. In 35S-TBPS competition studies, HEK293 membranes were incubated with 35S-TBPS (5 nM final) and GABA (1 μM) in the absence or presence of competitor at concentrations ranging from 0.01 nM to 10 μM in 125 μL incubation buffer for 2 hours at room temperature (˜22° C.). Non-specific binding was assayed with picrotoxin (100 μM final concentration). The binding reaction was terminated by vacuum filtration through GF/B filters previously soaked in 0.1% polyethylenimine followed by 3×1 mL washes with ice cold wash buffer (50 mM Tris HCl pH7.4, 4° C. and 150 mM KCl). Measurement of bound radioactivity was performed using a Packard Microplate 96 well topcount scintillation counter. Analysis of competition curves and estimation of pIC50 values of test compounds were performed using the software programs ActivityBase and/or Prism (version 3.0).

Another series deals with T2, GABAA α2β3γ2 (Homo sapiens, UniProt P18507+P28472+P47869).
T2 construct: expressed in transfected cells; host or cells: HEK293
As to the kind of experiment: 35S-TBPS binding assay, HEK293 membranes with GABAA α2β3γ2 construct. The following applies: 35S-TBPS 5 nM, GABA 1 μM, 2 hours at room temperature, read-out: α2β3γ2 (35S-TBPS binding, pIC50) (converted). As for the experimental part: as §1, §2, §3

Structures are written as SMILES. Where a name gives a salt, the structure may show the parent alone.

T1 sequence (P14867 28-456): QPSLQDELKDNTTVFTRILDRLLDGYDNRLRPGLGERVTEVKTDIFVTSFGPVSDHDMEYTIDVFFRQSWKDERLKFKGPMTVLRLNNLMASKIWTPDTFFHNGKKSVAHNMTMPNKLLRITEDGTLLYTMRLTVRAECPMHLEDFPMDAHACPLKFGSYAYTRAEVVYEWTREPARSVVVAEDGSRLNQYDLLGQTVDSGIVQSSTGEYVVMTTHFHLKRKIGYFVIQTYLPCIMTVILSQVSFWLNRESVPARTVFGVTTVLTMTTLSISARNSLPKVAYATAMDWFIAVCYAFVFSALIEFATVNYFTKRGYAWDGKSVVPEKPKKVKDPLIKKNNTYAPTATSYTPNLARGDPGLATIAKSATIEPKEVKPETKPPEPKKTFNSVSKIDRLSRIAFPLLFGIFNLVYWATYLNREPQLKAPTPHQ
T1 sequence (P47870 25-512 limits assumed): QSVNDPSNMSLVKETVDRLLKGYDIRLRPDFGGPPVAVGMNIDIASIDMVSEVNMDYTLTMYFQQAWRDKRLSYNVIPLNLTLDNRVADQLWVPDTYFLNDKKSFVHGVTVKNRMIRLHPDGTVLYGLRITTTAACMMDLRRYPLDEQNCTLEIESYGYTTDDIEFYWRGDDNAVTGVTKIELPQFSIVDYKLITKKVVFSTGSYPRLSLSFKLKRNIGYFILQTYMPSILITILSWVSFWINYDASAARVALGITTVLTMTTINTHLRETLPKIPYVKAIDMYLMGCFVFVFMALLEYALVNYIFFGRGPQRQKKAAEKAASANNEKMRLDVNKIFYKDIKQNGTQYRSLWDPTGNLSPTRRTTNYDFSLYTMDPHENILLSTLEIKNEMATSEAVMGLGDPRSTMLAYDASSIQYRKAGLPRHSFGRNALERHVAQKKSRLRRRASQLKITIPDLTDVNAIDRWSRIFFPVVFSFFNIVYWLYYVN
T1 sequence (P18507 40-475): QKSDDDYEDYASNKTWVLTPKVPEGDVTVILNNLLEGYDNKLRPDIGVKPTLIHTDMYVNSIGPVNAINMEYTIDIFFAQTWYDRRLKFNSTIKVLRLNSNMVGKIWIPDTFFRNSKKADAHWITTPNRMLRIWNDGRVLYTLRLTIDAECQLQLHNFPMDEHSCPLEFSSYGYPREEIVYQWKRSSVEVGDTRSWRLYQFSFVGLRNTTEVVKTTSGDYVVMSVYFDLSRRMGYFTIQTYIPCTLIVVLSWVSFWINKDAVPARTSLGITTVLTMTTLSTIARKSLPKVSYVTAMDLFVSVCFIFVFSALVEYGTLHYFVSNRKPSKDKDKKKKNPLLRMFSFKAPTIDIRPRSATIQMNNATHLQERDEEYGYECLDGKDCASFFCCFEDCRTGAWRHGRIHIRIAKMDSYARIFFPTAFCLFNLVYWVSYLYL
T2 sequence (P47869 29-451): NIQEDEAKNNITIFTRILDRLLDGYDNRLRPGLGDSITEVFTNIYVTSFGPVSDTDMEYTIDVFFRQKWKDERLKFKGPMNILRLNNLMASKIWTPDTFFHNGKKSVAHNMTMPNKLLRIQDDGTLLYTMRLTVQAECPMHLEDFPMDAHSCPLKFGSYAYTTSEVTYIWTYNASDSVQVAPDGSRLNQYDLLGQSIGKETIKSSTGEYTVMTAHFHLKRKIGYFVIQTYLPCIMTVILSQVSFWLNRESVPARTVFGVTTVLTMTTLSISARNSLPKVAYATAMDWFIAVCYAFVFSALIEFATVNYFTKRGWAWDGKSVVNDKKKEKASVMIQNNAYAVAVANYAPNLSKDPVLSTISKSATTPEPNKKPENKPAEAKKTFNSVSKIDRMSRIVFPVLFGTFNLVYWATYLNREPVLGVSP
T2 sequence (P28472 26-473): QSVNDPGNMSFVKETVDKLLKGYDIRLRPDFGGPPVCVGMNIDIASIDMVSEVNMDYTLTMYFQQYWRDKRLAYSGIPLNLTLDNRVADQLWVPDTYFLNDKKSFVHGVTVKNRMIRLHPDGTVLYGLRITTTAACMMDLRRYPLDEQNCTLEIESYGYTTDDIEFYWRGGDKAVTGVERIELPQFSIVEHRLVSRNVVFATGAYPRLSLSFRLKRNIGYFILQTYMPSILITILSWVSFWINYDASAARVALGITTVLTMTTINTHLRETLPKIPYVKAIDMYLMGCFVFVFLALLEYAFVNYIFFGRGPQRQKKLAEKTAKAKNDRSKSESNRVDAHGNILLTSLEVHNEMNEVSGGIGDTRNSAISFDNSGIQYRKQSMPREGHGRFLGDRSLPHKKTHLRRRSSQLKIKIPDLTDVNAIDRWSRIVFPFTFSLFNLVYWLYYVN
T2 sequence (P18507 40-475): as the sequence (P18507 40-475) above

On to `Cn1nc2c(-c3ccc(Cl)cc3Cl)cccc2c1CC1=NCCN1` [I-29, 7-(2,4-Dichloro-phenyl)-3-(4,5-di-hydro-1H-imidazol-2-yl-methyl)-2-methyl-2H-inda-zole], for which the IC50 on GABAA α1β2γ2 and at GABAA α2β3γ2 was > 10 µM in each case.

As for `Cn1nnc(-c2c3cccc(-c4ccc(Cl)cc4Cl)c3nn2C)n1` [I-52, 7-(2,4-Dichloro-phenyl)-2-meth-yl-3-(2-methyl-2H-tetra-zol-5-yl)-2H-indazole], the values for the IC50 at GABAA α1β2γ2 and on GABAA α2β3γ2 were 3.63 µM and 0.141 µM, respectively.

Turning to `CCOC(c1cnc[nH]1)c1c2cccc(-c3ccc(Cl)cc3Cl)c2nn1C` (stereo not drawn) [I-26, 7-(2,4-Dichloro-phenyl)-3-[eth-oxy-(3H-imidazol-4-yl)-meth-yl]-2-methyl-2H-inda-zole], the results for the IC50 at GABAA α1β2γ2 and at GABAA α2β3γ2 were 6.17 µM and 0.513 µM, respectively. The corresponding values for `Cn1nc2c(-c3ccc(Cl)cc3Cl)cccc2c1Cn1cncn1` [I-42, 7-(2,4-Dichloro-phenyl)-2-meth-yl-3-[1,2,4]triazol-1-yl-methyl-2H-indazole] are 5.01 µM and 0.603 µM. The corresponding values for `Cn1nc2c(-c3ccc(Cl)cc3Cl)cccc2c1Cc1ncc[nH]1` [I-21, 7-(2,4-Dichloro-phenyl)-3-(1H-imi-dazol-2-ylmethyl)-2-meth-yl-2H-indazole] are 3.55 µM and 0.55 µM. On the same counts, the results for `Cn1nnnc1C(O)c1c2cccc(-c3ccc(Cl)cc3Cl)c2nn1C` (stereo not drawn) [I-32, [7-(2,4-Dichloro-phenyl)-2-meth-yl-2H-indazol-3-yl]-(meth-yl-1H-tetrazol-5-yl)-meth-anol] are 5.89 µM and 0.398 µM. Consider `Cn1nc2c(-c3ccc(Cl)cc3Cl)cccc2c1Cn1ccnc1` [I-40, 7-(2,4-Dichloro-phenyl)-3-imi-dazol-1-ylmethyl-2-meth-yl-2H-indazole], for which the IC50 at GABAA α1β2γ2 was 4.07 µM; on GABAA α2β3γ2 it was 1.15 µM. On the same counts, the results for `Cn1nc2c(-c3ccc(Cl)cc3Cl)cccc2c1Cc1nnnn1CS(C)(=O)=O` [I-9, 7-(2,4-Dichloro-phenyl)-3-(1-meth-anesulfonylmethyl-1H-tetra-zol-5-ylmethyl)-2-meth-yl-2H-indazole] are > 10 µM and > 10 µM. The corresponding values for `Cn1nc2c(-c3ccc(Cl)cc3Cl)cccc2c1Cc1cnc[nH]1` [I-25, 7-(2,4-Dichloro-phenyl)-3-(3H-imi-dazol-4-ylmethyl)-2-meth-yl-2H-indazole] are > 10 µM and 1.15 µM. Consider `Cn1nc2c(-c3ccc(Cl)cc3Cl)cccc2c1C(=O)c1nccn1CCO` [I-24, [7-(2,4-Dichloro-phenyl)-2-meth-yl-2H-indazol-3-yl]-[1-(2-hydroxy-ethyl)-1H-imi-dazol-2-yl]-methanone], for which the IC50 on GABAA α1β2γ2 is 3.72 µM; on GABAA α2β3γ2 it was 0.214 µM. Regarding `Cn1nc2c(-c3ccc(Cl)cc3Cl)cccc2c1Cn1ncnn1` [I-49, 7-(2,4-Dichloro-phenyl)-2-meth-yl-3-tetrazol-2-yl-methyl-2H-indazole], the IC50 is 2.24 µM at GABAA α1β2γ2 and 0.372 µM at GABAA α2β3γ2. Consider `Cn1nc2c(-c3ccc(Cl)cc3Cl)cccc2c1C(O)c1cnc[nH]1` (stereo not drawn) [I-27, [7-(2,4-Dichloro-phenyl)-2-meth-yl-2H-indazol-3-yl]-(3H-imi-dazol-4-yl)-methanol], for which the values for the IC50 at GABAA α1β2γ2 and at GABAA α2β3γ2 were 2.34 µM and 0.55 µM, respectively. For the molecule `Cn1nc2c(-c3ccc(Cl)cc3Cl)cccc2c1-c1ncc[nH]1` [I-45, 7-(2,4-Dichloro-phenyl)-3-(1H-imi-dazol-2-yl)-2-meth-yl-2H-indazole], the IC50 is 5.62 µM at GABAA α1β2γ2 and 0.537 µM at GABAA α2β3γ2. As to `Cn1nc2c(-c3ccc(Cl)cc3Cl)cccc2c1Cn1cccn1` [I-37, 7-(2,4-Dichloro-phenyl)-2-meth-yl-3-pyrazol-1-yl-methyl-2H-indazole], the IC50 was 2.75 µM on GABAA α1β2γ2 and 0.38 µM at GABAA α2β3γ2.

Take `Cn1nc2c(-c3ccc(Cl)cc3Cl)cccc2c1-c1cnc[nH]1` [I-36, 7-(2,4-Dichloro-phenyl)-3-(3H-imi-dazol-4-yl)-2-meth-yl-2H-indazolehydrochloride]: the IC50 at GABAA α1β2γ2 was 7.24 µM; on GABAA α2β3γ2 it was 0.145 µM.

For `CN(C)S(=O)(=O)n1ccnc1C(O)c1c2cccc(-c3ccc(Cl)cc3Cl)c2nn1C` (stereo not drawn) [I-35, 2-{[7-(2,4-Dichloro-phenyl)-2-meth-yl-2H-indazol-3-yl]-hydroxy-methyl}-imidazole-1-sulfonicacid dimethyl-amide], at GABAA α1β2γ2, the IC50 is > 10 µM. In the case of `Cn1nc2c(-c3ccc(Cl)cc3Cl)cccc2c1-c1nnn[nH]1` [I-54, 7-(2,4-Dichloro-phenyl)-2-meth-yl-3-(1H-tetrazol-5-yl)-2H-inda-zole], the IC50 was 2.95 µM at GABAA α1β2γ2 and 0.692 µM on GABAA α2β3γ2. For the molecule `CCOC(=O)c1nccn1Cc1c2cccc(-c3ccc(Cl)cc3Cl)c2nn1C` [I-14, 1-[7-(2,4-Dichloro-phenyl)-2-meth-yl-2H-indazol-3-yl-methyl]-1H-imidazole-2-carboxy-lic acid ethyl ester], the IC50 on GABAA α1β2γ2 is 4.79 µM; on GABAA α2β3γ2, 0.832 µM. Consider `CCOC(=O)Cc1ncn(Cc2c3cccc(-c4ccc(Cl)cc4Cl)c3nn2C)n1` [I-58, {1-[7-(2,4-Dichloro-phenyl)-2-meth-yl-2H-indazol-3-yl-methyl]-1H-[1,2,4]triazol-3-yl}-aceticacid ethyl ester], for which the melting point lay in the range of 80.8 to 84 °C. Take `CCOC(=O)Cc1nnnn1Cc1c2cccc(-c3ccc(Cl)cc3Cl)c2nn1C` [I-7, {1-[7-(2,4-Dichloro-phenyl)-2-meth-yl-2H-indazol-3-yl-methyl]-1H-tetrazol-5-yl}-aceticacid ethyl ester]: the figures for the IC50 at GABAA α1β2γ2 and on GABAA α2β3γ2 were > 10 µM and 2.69 µM, respectively.

For `Cn1nc2c(-c3ccc(Cl)cc3Cl)cccc2c1N1C(=O)CCC1=O` [I-44, 1-[7-(2,4-Dichloro-phenyl)-2-meth-yl-2H-indazol-3-yl]-pyr-rolidine-2,5-dione], the IC50 on GABAA α1β2γ2 is > 10 µM; at GABAA α2β3γ2 it was 3.63 µM. On the same counts, the results for `Cn1nc2c(-c3ccc(Cl)cc3Cl)cccc2c1Cn1cnnn1` [I-43, 7-(2,4-Dichloro-phenyl)-2-meth-yl-3-tetrazol-1-yl-methyl-2H-indazole] are 8.91 µM and 0.832 µM. Molecule `CCOC(=O)Cc1ncnn1Cc1c2cccc(-c3ccc(Cl)cc3Cl)c2nn1C` [I-59, {2-[7-(2,4-Dichloro-phenyl)-2-meth-yl-2H-indazol-3-yl-methyl]-2H-[1,2,4]triazol-3-yl}-aceticacid ethyl ester] came in with a melting point of 167.9 to 168.9 °C. Regarding `Cn1nc2c(-c3ccc(Cl)cc3Cl)cccc2c1Cn1nccn1` [I-17, 7-(2,4-Dichloro-phenyl)-2-meth-yl-3-[1,2,3]triazol-2-yl-methyl-2H-indazole], the IC50 at GABAA α1β2γ2 is > 10 µM; on GABAA α2β3γ2, 0.427 µM. On the same counts, the results for `Cn1nc2c(-c3ccc(Cl)cc3Cl)cccc2c1C(O)c1ncc[nH]1` (stereo not drawn) [I-28, [7-(2,4-Dichloro-phenyl)-2-meth-yl-2H-indazol-3-yl]-(1H-imi-dazol-2-yl)-methanol] are 0.575 µM and 0.148 µM. Regarding `Cn1nc2c(-c3ccc(Cl)cc3Cl)cccc2c1Cn1ccnn1` [I-16, 7-(2,4-Dichloro-phenyl)-2-meth-yl-3-[1,2,3]triazol-1-yl-methyl-2H-indazole], the values for the IC50 at GABAA α1β2γ2 and at GABAA α2β3γ2 were 5.89 µM and 1.2 µM, respectively.

For the molecule `COCn1ncnc1C(=O)c1c2cccc(-c3ccc(Cl)cc3Cl)c2nn1C` [I-19, [7-(2,4-Dichloro-phenyl)-2-meth-yl-2H-indazol-3-yl]-(2-meth-oxymethyl-2H-[1,2,4]tri-azol-3-yl)-meth-anone], the IC50 on GABAA α1β2γ2 was > 10 µM; on GABAA α2β3γ2, 1.62 µM. Consider `Cn1nc2c(-c3ccc(Cl)cc3Cl)cccc2c1C(=O)c1ncc[nH]1` [I-30, [7-(2,4-Dichloro-phenyl)-2-meth-yl-2H-indazol-3-yl]-(1H-imi-dazol-2-yl)-meth-anone], for which the IC50 on GABAA α1β2γ2 was 4.47 µM; on GABAA α2β3γ2, 0.166 µM. On to `COC(=O)c1cncn1Cc1c2cccc(-c3ccc(Cl)cc3Cl)c2nn1C` [I-13, 3-[7-(2,4-Dichloro-phenyl)-2-meth-yl-2H-indazol-3-yl-methyl]-3H-imidazole-4-carboxy-lic acid methyl ester], for which the IC50 on GABAA α2β3γ2 was 0.912 µM.

The melting point is the temperature of the solid-liquid transition.

Source of the values: patent US20070238765A1, “Heterocyclic GABAA subtype selective receptor modulators” (Roche Palo Alto LLC, priority 2006, published 2007).
